The values below are quoted from earlier work in EP4763224A1, “ANTICANCER AGENT CONTAINING NKT CELL LIGAND-CONTAINING LIPOSOME COMPOSITION” (RIKEN, priority 2023, dated 2025).

The test system of the data set is NKT cells. The conditions noted are these: for activity relative to α-galactosylceramide: Patent Documents 1 to 5 and Non-Patent Document 10.

`CCCCCCCCCCCCCCCCCCCCCCCCCC(=O)N[C@@H](CO[C@H]1O[C@H](COC)[C@H](O)[C@H](O)[C@H]1O)[C@H](O)[C@H](O)CCCCCCCCCCCCCC` [RCAI-61]: the “activity relative to α-galactosylceramide” value is “several tens times higher”. In the case of `CCCCCCCCCCCCCCCCCCCCCCCCCC(=O)N[C@@H](CO[C@H]1O[C@H](COC(=O)NO)[C@H](O)[C@H](O)[C@H]1O)[C@H](O)[C@H](O)CCCCCCCCCCCCCC` [RCAI-137], the “activity relative to α-galactosylceramide” value was “several tens times higher”.

As to `CCCCCCCCCCCCCCCCCCCCCCCCCC(=O)N[C@@H](CO[C@H]1O[C@H](COC(=O)NC)[C@H](O)[C@H](O)[C@H]1O)[C@H](O)[C@H](O)CCCCCCCCCCCCCC` [RK-163], the “activity relative to α-galactosylceramide” value is listed as “several tens times higher”. For `CCCCCCCCCCCCCCCCCCCCCCCCCC(=O)N[C@@H](CO[C@H]1O[C@H](CO)[C@H](O)[C@H](O)[C@H]1O)[C@H](O)[C@H](O)CCCCCCCCCCCCCC` [α-Galactosylceramide, reference compound], the “artificial activation of NKT cells” value (Non-Patent Document 9) is reported as “strongly induce artificial activation of NKT cells”.
